Patent US20130053435A1, “Methods of Treating Alcohol Intoxication, Alcohol Use Disorders and Alcohol Abuse Which Comprises the Administration of Dihydromyricetin” (priority 2011, published 2013)
Where “and” joins values, the source holds several entries; their conditions need not be identical. Equal values may be shown once.

Experiments:
[1] = test system: EtOH withdrawal anxiety in rats; assay: Elevated plus-maze (EPM) after EtOH withdrawal; type: in vivo, rat
Procedure: 48 hr after injection, rats were sub-divided into 3 groups to measure signs of EtOH withdrawal.
Anxiety and locomotion/ataxia associated with EtOH withdrawal was measured on an elevated plus-maze in EtOH-withdrawn rats (EPM, FIG. 12A). Spent time was measured in minutes. The plus-maze was constructed and the measurements were scored as described previously. See Liang et al. (2004) J Pharmacol Exp Ther 310:1234-1245. Briefly, the maze was elevated 1 m above the floor, and contained four 51 cm-long, 11.5 cm-wide arms arranged at right angles. The closed arms had opaque walls 30 cm high, extending the length of the arm. At the time of the test, each animal was placed in the center of the maze facing an open arm and allowed to explore for a 5-min session. During the session, the animal's behavior (e.g. number of arm entries and time spent in each arm per entry) was recorded on a camcorder

[2] = test system: benzodiazepine site of GABAARs; assay: [3H]flunitrazepam binding in rat cortical membrane homogenates
Procedure: Standard procedures for preparation of rat cortical membranes for radioligand binding assays were conducted as previously described with modifications in speed and number of centrifugation and washes, and buffer compositions. […] Naïve rat cortex was dissected from brain and homogenized in 0.32 M sucrose, 10 mM HEPES buffer (pH 7.4), and centrifuged at 650×g, 4° C. The subsequent supernatant was centrifuged at 150,000×g to collect the desired membrane-containing pellet. The pellet was washed and centrifuged two more times, first using ice-cold water and second using membrane buffer containing 50 mM KH2PO4, 1 mM EDTA, 2 mM benzamidine HCl, 0.5 mM DTT, 0.1 mM benzethonium HCl, 0.01% bacitracin, 0.2 PMSF (pH 7.4), and the resulting pellet was frozen. On the day of binding assay, the pellet was homogenized in assay buffer containing 50 mM KH2PO4, 1 mM EDTA, 200 mM KCl (pH 7.4) and centrifuged, and resuspended in fresh assay buffer to a final protein concentration of 1 mg/ml. […] Specific binding was defined as the total amount bound (zero unlabeled ligand) minus the binding in the presence of 10 μM final concentration flurazepam (Sigma). Data was analyzed with GraphPad Prism 4.0 Software (San Diego, Calif.) to determine IC50 (One-site competition equation) and Hill slope (Sigmoidal Dose-Response equation). Experiments were conducted in triplicate.

[3] = test system: GABAARs; assay: Whole-cell patch-clamp, DGCs in hippocampal slices 48 hr after in vivo treatment; type: cell-based, rat; conditions: 48 hr withdrawal
Procedure: Transverse slices (400 μm) of dorsal hippocampus were obtained with a Vibratome (VT 100, Technical Products International, St. Louis, Mo.) and standard techniques known in the art. Slices were continuously perfused with artificial cerebrospinal fluid (ACSF). See Liang, J., et al. (2007) J Neurosci 27:12367-12377.
Whole-cell patch-clamp recordings were obtained at 34±0.5° C. from cells located in the DG layer at a holding potential of −70 mV, during perfusion with artificial cerebrospinal fluid (ACSF, 125 mM NaCl, 2.5 mM KCl, 2 mM CaCl2, 2 mM MgCl2, 26 mM NaHCO3, and 10 mM D-glucose). The ACSF was continuously bubbled with 95% O2-5% CO2 to ensure adequate oxygenation of slices and a pH of 7.4. Patch electrodes were pulled from thin-wall borosilicate glass pipettes with resistances of 7.5-9 MΩ and were filled with pipette solution (i.e. 137 mM CsCl, 2 mM MgCl2, 1 mM CaCl2, 11 mM EGTA, 10 mM HEPES and 3 mM ATP, pH adjusted to 7.30 with CsOH). Signals were recorded in voltage-clamp mode with a […] amplifier (Molecular Devices, Sunnyvale, Calif.). Whole cell access resistances were in the range of <25 MΩ before electrical compensation by about 70%. During voltage-clamp recordings, access resistance was monitored by measuring the size of the capacitative transient in response to a 5 mV step command and the data were abandoned if changes >20% were encountered. At least 10 min was allowed for equilibration of the pipette solution with the intracellular milieu before commencing mIPSC recordings. Intracellular signal was low-pass filtered at 3 kHz and data were acquired with Digidata 1440A and software CLAMPEX 10 (Molecular Devices) at a sampling frequency of 20 kHz.
Pharmacologically-isolated GABAAR-mediated mIPSCs were recorded as previously described (Liang (2007) and Shen (2011)). […] Data were analyzed using the Clampfit (Version 9.0, Molecular Devices) and the MiniAnalysis Program (versions 6.0.7, Synaptosoft, Decatur, Ga.).
The MiniAnalysis program (Synaptosoft, Decatur, Ga.) was used to analyze mIPSCs. Itonic is the averaged baseline currents of a given recording period. Itonic amplitude was calculated as the difference between the holding currents measured before and after picrotoxin (100 μM) or bicuculline (10 μM). See Wei, W., et al. (2004) J Neurosci 24, 8379-8382; Liang (2007); and Shen (2011). Briefly, the recordings were low-pass filtered off-line (Clampfit software) at 2 kHz. The mIPSCs were detected (Mini Analysis Program, version 6.0.7) with threshold criteria of 8 pA amplitude and 20 pA*ms charge transfer. The frequency of mIPSCs was determined from all automatically detected events in a given 100 s recording period. For kinetic analysis, only single event mIPSCs with a stable baseline, sharp rising phase (10 to 90% rise time), and exponential decay were chosen during visual inspection of the recording trace. Double and multiple peak mIPSCs were excluded. At least 100 individual mIPSC events were recorded under each experimental condition. The mIPSC kinetics was obtained from analysis of the averaged chosen single events aligned with half rise time in each cell. Decay time constants were obtained by fitting a double exponential to the falling phase of the averaged mIPSCs. Itonic magnitudes were obtained from the averaged baseline current of a given recording period. Itonic amplitude was calculated as the difference between the holding currents measured before and after the application of picrotoxin (50 μM) or bicuculline (10 μM). See Liang J et al (2007); Shen (2011); Hamann (2002); and Mangan P S, et al. (2005) Mol Pharmacol 67(3):775-788. The investigator performing the recordings and mIPSC analysis was blind to the treatment (vehicle, EtOH, E+D, or D) that the rats received.
After 48 hr withdrawal, whole-cell GABAAR-mediated currents were recorded on DGCs in hippocampal slices. In the vehicle group, bath application of EtOH (60 mM) enhanced Itonic from 28.8±3.1 to 62.1±3.3 pA (FIG. 13, panels A, G). […]

[4] = EtOH+DHM (E+D) group, 48 hr withdrawal

- concentration at which significant inhibition of [3H]flunitrazepam binding starts [2]: 0.3 µM
- IC50 ([2]; [3H]flunitrazepam 1 nM, rat cortex membranes, read-out: IC50, inhibition of [3H]flunitrazepam binding): 4.36 µM
- binding to GABAARs in [3H]flunitrazepam binding assay ([2]; comparative experiments): bind GABAARs
SMILES: O=C1c2c(O)cc(O)cc2O[C@H](c2cc(O)c(O)c(O)c2)[C@H]1O [DHM, (2R,3R)-3,5,7-trihydroxy-2-(3,4,5-trihydroxyphenyl)-2,3-dihydrochromen-4-one]
- time spent in closed arms ([1]; DHM group, 48 hr): 1.52 ± 0.56 min
- time spent in open arms ([1]; DHM group, 48 hr): 2.92 ± 0.70 min
- time spent in closed arms [1, 4]: 1.88 ± 0.79 min
- time spent in open arms [1, 4]: 2.68 ± 0.77 min
- mIPSC area after acute EtOH (60 mM) ([3]; EtOH+DHM group): 0.78±0.02 nC
- mIPSC area before acute EtOH ([3]; EtOH+DHM group): 0.70±0.03 nC
- Itonic before acute EtOH ([3]; rats treated with EtOH (5 g/kg) + DHM (1 mg/kg)): 30.0±2.8 pA and 27.9±3.0 pA
- Itonic after acute EtOH (60 mM) ([3]; rats treated with EtOH + DHM (1 mg/kg)): 60.0±2.2 pA and 61.3±2.3 pA
- mIPSC increase by acute EtOH (60 mM) ([3]; rats treated with EtOH + DHM): 18.0±5.9%
